{
  "source": "patent US9518085B2",
  "about": "“Compounds and pharmaceutical combinations for the treatment of neurodegenerative and ischemic brain diseases” (CENTRO DE INGENIERÍA GENÉTICA Y BIOTECHNOLOGÍA, priority 2011, dated 2016)",
  "key": {"[1]": {"tested_on": "brain I/R model in Mongolian gerbils", "test": "Brain infarct volume in the bilateral ischemia-reperfusion (I/R) model, transient CCA occlusion", "type": "in vivo", "conditions": "24 h after 10 min CCA occlusion, PCB 750 μg/Kg ip, PCB-aa 3.375 mg/kg, alone or combined", "method": "The animals were treated with saline solution or with an accumulative dose of the PCB-aa peptides (3.375 mg/kg of each one), by intraperitoneal route for 30 min, 3, 6 and 12 h after the ischemic event.\nThe effectiveness percentage of each treatment was calculated according to the following formula: effectiveness %=(1−Vi/VI/R)×100. Vi: infarct volume of the ischemic group treated with the corresponding product; VI/R: volume of the infarct of the ischemic group treated with saline solution.\nThe percentage of effectiveness was calculated as described in Example 3.\nThe animals were treated with a saline solution (through the intraperitoneal route) or with an accumulative dose of PCB (750 μg/Kg, by the intraperitoneal route), PCB-aa (peptide 4) 3.375 mg/kg, EPO (500 U/Kg, through the intraperitoneal route), asyaloEPO (200 U/Kg, through the nasal route) or with PCB/EPO or PCB-aa (peptide 4)/EPO, PCB/asyaloEPO and PCB-aa ([…])/asyaloEPO (maintaining the dose and the corresponding administration route) for 30 min, 3, 6 and 12 h after the ischemic event.\nThe evaluation of the therapeutic effect of the combinations and their independent components was carried out. The percentage of effectiveness of each treatment was calculated as described in Example 3."}, "[2]": {"tested_on": "hippocampus (C2, CA3, CA4 regions) of Mongolian gerbils, I/R model", "test": "Morphometric evaluation, bilateral hippocampal cell count after transient CCA occlusion", "type": "in vivo", "conditions": "750 μg/Kg ip, GHRP-6 6.25 μg/kg ip, alone or combined; 30 min, 3, 6, 12 h after ischemic event", "method": "FIG. 8. Morphometric evaluation of the therapeutic effect with PCB-aa (peptide 3), the GHRP-6 peptide, or its combination in Mongolian gerbils submitted to transient (10 min) occlusion of CCA. A: representative images (4× magnification) of the left hippocampus of animals that underwent fake surgery (sham), or treated with saline solution, or with PCB-aa (peptide 3) and GHRP-6 (6.25 μg/kg, intraperitoneal route), or with PCB-aa (peptide 3)/GHRP-6 (maintaining the corresponding doses and administration routes) for 30 min, 3, 6 and 12 h after the ischemic event. B: bilateral cell count performed in the C2, CA3 and CA4 regions of both hippocampi for each experimental group. Different letters indicate significant differences with respect to the I/R+saline group, *p<0.05. The values presented in the graphs are means±MSE\nThe morphometric evaluations of the therapeutic treatment with PCB-aa (peptide 3), the GHRP-6 peptide or its combinations were tested in Mongolian gerbils submitted to transient (10 min) CCAs occlusion. Accumulative doses of PCB-aa (peptide 3) (750 μg/Kg, by intraperitoneal route), GHRP-6 (6.25 μg/kg, intraperitoneal route), or with PCB-aa (peptide 3)/GHRP-6 (maintaining the corresponding dose and administration route) for 30 min, 3, 6 and 12 h after the ischemic event were evaluated. The bilateral cell count was performed in the C2, CA3 and CA4 regions for each experimental group and it was expressed in percentage with respect to the sham (negative or fake surgery) group."}, "[3]": {"tested_on": "PC12 cell line", "test": "Neuroprotector effect against Sodium glutamate induced damage in PC12 cells (MTT cell viability)", "type": "cell-based", "conditions": "for concentration needed to attain cell viability similar to C-Phyco: PC12, 24 h pretreatment, 4 h co-incubation with Sodium glutamate, MTT; for cells protected from the damage: Sodium glutamate damage, PC12", "method": "FIG. 2. In vitro study of the neuroprotector effect of C-Phycocyanin (C-Phyco) (A) and of PCB and PCB-aa (B) against the Sodium glutamate (50 mM) induced damage in the neuronal line PC12. The symbols indicate the presence (+), absence (−) or concentrations of the respective compounds in the culture medium. Different letters indicate statistically significant difference, according to ANOVA followed by the Newman-Keuls multiple comparison test, p<0.05. The values presented in the graphs are the means±standard error of the mean (MSE).\nPC12 cells (1.5×10^4 cells/well) were pretreated with C-Phyco (25, 50 μM) or PCB (0.5; 1; 5 μM) or PCB-aa (0.25; 1; 2 μM), during 24 h, and then submitted to co-incubation with […] Sodium glutamate together with the corresponding product (different doses) for 4 h."}, "[4]": {"tested_on": "experimental autoinmune encephalomyelitis (EAE) model", "test": "EAE model, prophylactic schedule, clinical index", "type": "in vivo, C57BL6 mice", "conditions": "PCB-aa 3.375 mg/Kg, PCB 750 μg/Kg, alone or combined", "method": "(§1) In the prophylactic schedule the treatment was performed 15 days before EAE induction and in the therapeutic schedule starting from the beginning of the clinical signs."}, "[5]": {"tested_on": "culture of brain granulous cells", "conditions": "1-3 mg/mL, absence of potassium and serum for 24 h; cited from earlier work"}, "[6]": {"target": "T1, COX-2 (Homo sapiens, UniProt P35354)", "T1 sequence (P35354 18-604)": "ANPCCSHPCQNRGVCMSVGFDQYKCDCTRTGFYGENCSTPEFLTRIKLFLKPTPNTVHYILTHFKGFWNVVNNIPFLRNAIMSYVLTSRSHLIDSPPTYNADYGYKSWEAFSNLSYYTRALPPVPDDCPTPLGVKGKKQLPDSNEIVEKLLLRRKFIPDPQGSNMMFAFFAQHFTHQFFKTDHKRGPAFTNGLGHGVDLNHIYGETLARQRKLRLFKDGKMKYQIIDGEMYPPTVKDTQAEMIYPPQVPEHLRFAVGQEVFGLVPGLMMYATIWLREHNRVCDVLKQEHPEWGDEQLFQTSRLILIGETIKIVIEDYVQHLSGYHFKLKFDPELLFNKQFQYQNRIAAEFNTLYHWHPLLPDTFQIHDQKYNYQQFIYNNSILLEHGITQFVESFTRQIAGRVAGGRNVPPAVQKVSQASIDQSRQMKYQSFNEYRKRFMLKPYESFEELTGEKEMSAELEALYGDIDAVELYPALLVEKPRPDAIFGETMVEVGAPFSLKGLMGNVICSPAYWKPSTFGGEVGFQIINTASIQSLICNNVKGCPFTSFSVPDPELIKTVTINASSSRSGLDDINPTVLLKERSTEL", "conditions": "isolated enzyme; complete blood assay; cited from earlier work"}, "[7]": {"tested_on": "swollen paw models in mice and rats", "conditions": "oral route, 100-200 mg/kg; cited from earlier work"}, "[8]": {"tested_on": "model of brain damage in rats induced by kainic acid", "conditions": "one 100 mg/kg dose; cited from earlier work"}, "[9]": {"tested_on": "EAE model", "test": "EAE model, therapeutic schedule, clinical course (area under the curve)", "type": "in vivo, C57BL6 mice", "conditions": "PCB 750 μg/kg ip, PCB-aa 3.375 mg/kg ip daily 15 days, IFN-b 500 ng/Kg sc 6 doses, alone or combined", "method": "The percentage of effectiveness of each treatment was calculated according to the following formula: % of effectiveness=(1−ACi/ACEAE)×100. ACi: area under the curve of the group treated with the corresponding product; ACEAE: area under the curve of the EAE group.\nas §1"}, "[10]": {"conditions": "EPO 500 U/Kg ip, asyaloEPO 200 U/Kg nasal"}, "[11]": {"conditions": "IFN-a/IFN-b 500 ng/Kg sc, 30 min, 3, 6, 12 h after ischemic event"}},
  "note": "No end group written: not given here.",
  "data": [
    {"substance": "^84BAR^86 (Cys(phycocyanobilin)-Ala-Arg; listed as Spirulina platensis) [PCB-aa (peptide 2), chromogenic peptide of α-C-Phyco]", "values": [
      {"measurement": "effectiveness, reduction of brain infarct volume", "setting": "[1]; IL-2 100 ng/Kg sc", "result": 49.2, "unit": "%"}
    ]},
    {"substance": "^80AABLR^84 (AAC(phycocyanobilin)LR; listed as Spirulina platensis) [PCB-aa (peptide 3), chromogenic peptide of β-C-Phyco]", "values": [
      {"measurement": "effectiveness, bilateral hippocampal cell count", "setting": "[2]", "result": 35.8, "unit": "%"}
    ]},
    {"substance": "GHRP-6 [reference compound]", "values": [
      {"measurement": "effectiveness, bilateral hippocampal cell count", "setting": "[2]", "result": 36.1, "unit": "%"}
    ]},
    {"substance": "^82BLR^84 (Cys(phycocyanobilin)-Leu-Arg; listed as Spirulina platensis) [PCB-aa (peptide 4), chromogenic peptide of β-C-Phyco]", "values": [
      {"measurement": "effectiveness, reduction of brain infarct volume", "setting": "[1]; [10]", "result": 49.2, "unit": "%"}
    ]},
    {"substance": "^79MAABLR^84 (MAAC(phycocyanobilin)LR; listed as Spirulina platensis) [PCB-aa (peptide 1), chromogenic peptide of β-C-Phyco]", "values": [
      {"measurement": "concentration needed to attain cell viability similar to C-Phyco", "setting": "[3]", "result": "even lower"},
      {"measurement": "Clinical score (Mean ± SD)", "setting": "[4]; Table 1, IFN-a 500 ng/Kg", "result": "1.23 ± 1.1"},
      {"measurement": "Days of the disease", "setting": "[4]; Table 1, IFN-a 500 ng/Kg", "result": "7.2 ± 0.3", "unit": "days"},
      {"measurement": "Incidence (%)", "setting": "[4]; Table 1, IFN-a 500 ng/Kg", "result": 75, "unit": "%"},
      {"measurement": "Starting Day (Mean ± SD)", "setting": "[4]; Table 1, IFN-a 500 ng/Kg", "result": "9.5 ± 0.2"},
      {"measurement": "Clinical score (Mean ± SD)", "setting": "[4]; Table 2, IFN-b 500 ng/Kg", "result": "1.23 ± 1.1"},
      {"measurement": "Days of the disease", "setting": "[4]; Table 2, IFN-b 500 ng/Kg", "result": "7.2 ± 0.3", "unit": "days"},
      {"measurement": "Incidence (%)", "setting": "[4]; Table 2, IFN-b 500 ng/Kg", "result": 70, "unit": "%"},
      {"measurement": "Starting day (Mean ± DS)", "setting": "[4]; Table 2, IFN-b 500 ng/Kg", "result": "9.5 ± 0.2"},
      {"measurement": "effectiveness, reduction of brain infarct volume", "setting": "[1]; [11]", "result": 49.2, "unit": "%"}
    ]},
    {"substance": "C-Phycocyanin", "values": [
      {"measurement": "cells protected from the damage", "setting": "[3]; 50 μM C-Phyco", "result": "around 75%"},
      {"measurement": "neuron death", "setting": "[5]", "result": "prevents neuron death"},
      {"measurement": "COX-2 inhibition", "setting": "[6]", "result": "inhibits COX-2"},
      {"measurement": "edema", "setting": "[7]", "result": "able to reduce edemas"},
      {"measurement": "signs and alterations versus untreated control group", "setting": "[8]", "result": "reduced the signs"}
    ]},
    {"substance": "Phycocyanobilin [PCB]", "values": [
      {"measurement": "cells protected from the damage", "setting": "[3]; 5 μM PCB", "result": 100, "unit": "%"},
      {"measurement": "concentration needed to attain cell viability similar to C-Phyco", "setting": "[3]", "result": "lower concentrations"},
      {"measurement": "protective molar concentration, times lower than C-Phyco", "setting": "[3]; PC12, Sodium glutamate damage", "result": 10, "unit": "times"},
      {"measurement": "Clinical score (Mean ± SD)", "setting": "[4]; Table 1, IFN-a 500 ng/Kg", "result": "1.37 ± 1.7"},
      {"measurement": "Days of the disease", "setting": "[4]; Table 1, IFN-a 500 ng/Kg", "result": "8.5 ± 0.1", "unit": "days"},
      {"measurement": "Incidence (%)", "setting": "[4]; Table 1, IFN-a 500 ng/Kg", "result": 70, "unit": "%"},
      {"measurement": "Starting Day (Mean ± SD)", "setting": "[4]; Table 1, IFN-a 500 ng/Kg", "result": "10.5 ± 0.5"},
      {"measurement": "Clinical score (Mean ± SD)", "setting": "[4]; Table 2, IFN-b 500 ng/Kg", "result": "1.55 ± 0.3"},
      {"measurement": "Days of the disease", "setting": "[4]; Table 2, IFN-b 500 ng/Kg", "result": "7.3 ± 0.4", "unit": "days"},
      {"measurement": "Incidence (%)", "setting": "[4]; Table 2, IFN-b 500 ng/Kg", "result": 60, "unit": "%"},
      {"measurement": "Starting day (Mean ± DS)", "setting": "[4]; Table 2, IFN-b 500 ng/Kg", "result": "12.3 ± 0.1"},
      {"measurement": "effectiveness, bilateral hippocampal cell count", "setting": "[2]", "result": 35.8, "unit": "%"},
      {"measurement": "% of effectiveness (area under the curve of clinical index)", "setting": "[9]", "result": 46.1, "unit": "%"},
      {"measurement": "effectiveness, reduction of brain infarct volume", "setting": "[1]; [10]", "result": 43.1, "unit": "%"},
      {"measurement": "effectiveness, reduction of brain infarct volume", "setting": "[1]; [11]", "result": 43.1, "unit": "%"},
      {"measurement": "effectiveness, reduction of brain infarct volume", "setting": "[1]; IL-2 100 ng/Kg sc", "result": 43.1, "unit": "%"}
    ]}
  ]
}
